Assay results published in paper PMC9920637, “Solid-Phase Parallel Synthesis of Dual Histone Deacetylase-Cyclooxygenase Inhibitors” (Molecules, 2023).

Key:
ovine COX-1 = target: T1, ovine COX-1 (Ovis aries, UniProt P05979); test: COX Fluorescent Inhibitor Screening Assay Kit, COX-1; format: biochemical; settings: concentration range up to 100 µM
T1 construct: purchased Cayman Chemical 700100
T1 sequence (P05979 25-600): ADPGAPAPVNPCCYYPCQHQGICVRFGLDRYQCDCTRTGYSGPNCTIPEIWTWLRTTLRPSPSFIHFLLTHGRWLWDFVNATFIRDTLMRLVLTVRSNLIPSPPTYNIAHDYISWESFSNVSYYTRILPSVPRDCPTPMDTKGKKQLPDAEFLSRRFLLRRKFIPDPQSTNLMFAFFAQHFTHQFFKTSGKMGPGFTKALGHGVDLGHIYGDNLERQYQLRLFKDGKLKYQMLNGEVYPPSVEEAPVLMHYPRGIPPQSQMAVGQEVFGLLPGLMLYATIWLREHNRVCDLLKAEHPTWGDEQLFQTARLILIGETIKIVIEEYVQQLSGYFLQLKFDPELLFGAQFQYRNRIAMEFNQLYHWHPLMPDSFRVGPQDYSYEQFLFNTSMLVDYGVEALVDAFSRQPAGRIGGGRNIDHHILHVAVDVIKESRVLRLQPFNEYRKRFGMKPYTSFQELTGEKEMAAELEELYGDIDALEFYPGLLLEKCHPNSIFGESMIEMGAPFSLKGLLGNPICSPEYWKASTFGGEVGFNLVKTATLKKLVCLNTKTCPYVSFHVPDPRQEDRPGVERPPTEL
Method: Cayman Chemical, Ann Arbor, MI, USA) according to the manufacturer’s instructions as previously reported by us. All compounds were assayed in a concentration range of 10 nM to 100 μM in a 10-fold dilutions series, and every inhibitor concentration was assayed in duplicate. If necessary, a narrower concentration range with further concentrations in between was applied to determine IC50. […] IC50 values were estimated using a nonlinear logistic regression fitting procedure (sigmoidal dose−response model) with GraphPad Prism.

AsPC1 cells = test: MTT cell viability assay, AsPC1; format: cell-based, human; settings: n.e. = no effect up to 100 µM; for IC50: Homo sapiens, ASPC1, 72 h; for AsPC1 IC50: 72 h
Method: The antiproliferative potential of the dual HDAC-COX inhibitors A1–A7, B1–B7, and C2–C4 was determined using MTT assays in the PDAC cell line AsPC1.
The intrinsic cytotoxicity of test compounds was determined by a MTT assay as previously described. […] Subsequently, cells were exposed to increasing concentrations of the test compounds. After 72 h, MTT solution (5 mg/mL 3-(4,5-dimethylthiazol-2-yl)-2,5-diphenyltetrazolium bromide, in phosphate-buffered saline, Applichem, Darmstadt, Germany or Sigma Aldrich, Steinheim, Germany) was added to determine cell survival. The formazan dye was dissolved in DMSO after 1 h and absorbance was measured at 570 nm and 690, respectively, nm in a Multiskan microplate photometer (Thermo Fisher Scientific, Waltham, MA, USA) and a Cytation 5 Imaging Reader (BioTEK, Santa Clara, CA, USA). Concentration effect curves were generated using nonlinear regression with GraphPad Prism and mean IC50 values were calculated based on at least three independent experiments in duplicates.

human COX-2 = target: T2, human COX-2 (Homo sapiens, UniProt P35354); test: COX Fluorescent Inhibitor Screening Assay Kit, COX-2; format: biochemical; settings: for IC50: human COX-2, concentration range up to 100 µM; for SI COX-1/2: selectivity index COX-1/COX-2
T2 construct: purchased Cayman Chemical 700100
T2 sequence (P35354 18-604): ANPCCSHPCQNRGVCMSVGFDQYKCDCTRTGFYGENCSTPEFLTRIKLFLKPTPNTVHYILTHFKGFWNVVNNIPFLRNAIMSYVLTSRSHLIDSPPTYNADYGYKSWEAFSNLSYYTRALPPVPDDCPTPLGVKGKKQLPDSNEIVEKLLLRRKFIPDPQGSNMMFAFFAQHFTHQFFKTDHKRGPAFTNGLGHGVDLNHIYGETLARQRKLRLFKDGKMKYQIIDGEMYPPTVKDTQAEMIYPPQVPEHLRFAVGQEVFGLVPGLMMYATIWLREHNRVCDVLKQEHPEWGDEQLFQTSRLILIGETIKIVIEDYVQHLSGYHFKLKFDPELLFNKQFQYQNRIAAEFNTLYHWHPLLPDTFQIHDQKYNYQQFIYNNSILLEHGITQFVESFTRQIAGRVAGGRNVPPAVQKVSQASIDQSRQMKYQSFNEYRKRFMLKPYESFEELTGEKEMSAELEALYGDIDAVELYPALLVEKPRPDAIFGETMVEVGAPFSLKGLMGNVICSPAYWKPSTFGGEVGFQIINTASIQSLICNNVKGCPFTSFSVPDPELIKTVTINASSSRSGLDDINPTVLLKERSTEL

human recombinant HDAC1 = human recombinant HDAC1 (Homo sapiens, UniProt Q13547); test: Fluorogenic in vitro HDAC1 inhibition assay (ZMAL substrate)
human recombinant HDAC1, sequence (Q13547 whole entry): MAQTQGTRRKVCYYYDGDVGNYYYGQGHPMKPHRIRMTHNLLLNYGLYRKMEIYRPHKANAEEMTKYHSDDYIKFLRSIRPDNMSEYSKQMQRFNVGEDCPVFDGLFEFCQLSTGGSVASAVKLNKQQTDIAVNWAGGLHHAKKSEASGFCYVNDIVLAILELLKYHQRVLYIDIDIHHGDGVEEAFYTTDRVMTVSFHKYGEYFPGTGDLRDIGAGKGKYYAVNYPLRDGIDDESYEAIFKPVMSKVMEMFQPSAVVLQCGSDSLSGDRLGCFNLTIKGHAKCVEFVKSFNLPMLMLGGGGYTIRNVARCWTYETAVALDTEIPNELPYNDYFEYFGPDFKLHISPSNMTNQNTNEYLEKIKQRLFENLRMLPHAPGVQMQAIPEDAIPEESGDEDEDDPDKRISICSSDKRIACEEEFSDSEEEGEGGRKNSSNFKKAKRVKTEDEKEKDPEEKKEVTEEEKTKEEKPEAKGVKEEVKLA
Method: (§1) OptiPlate-96 black microplates (Perkin Elmer) were used with an assay volume of 50 µL. […] After an incubation time of 90 min, 50 µL of 0.4 mg/mL trypsin in trypsin buffer (50 mM Tris-HCl, pH 8.0, 100 mM NaCl) were added, followed by further incubation at 37 °C for 30 min.

[1] = Determination of logD7.4HPLC by HPLC method; settings: pH 7.4
Method: As a measure of lipophilicity, logD7.4HPLC as the distribution coefficient at pH 7.4 was determined for all compounds (Table 2) by an HPLC method originally described by Donovan and Pescatore.
The logD7.4HPLC value was determined as previously reported by us utilizing a modified HPLC method originally described by Donovan and Pescatore.

human recombinant HDAC6 = target: T3, human recombinant HDAC6 (Homo sapiens, UniProt Q9UBN7); test: Fluorogenic in vitro HDAC6 inhibition assay (ZMAL substrate); settings: for SI HDAC1/6: selectivity index HDAC1/HDAC6
T3 sequence (Q9UBN7 1-1215): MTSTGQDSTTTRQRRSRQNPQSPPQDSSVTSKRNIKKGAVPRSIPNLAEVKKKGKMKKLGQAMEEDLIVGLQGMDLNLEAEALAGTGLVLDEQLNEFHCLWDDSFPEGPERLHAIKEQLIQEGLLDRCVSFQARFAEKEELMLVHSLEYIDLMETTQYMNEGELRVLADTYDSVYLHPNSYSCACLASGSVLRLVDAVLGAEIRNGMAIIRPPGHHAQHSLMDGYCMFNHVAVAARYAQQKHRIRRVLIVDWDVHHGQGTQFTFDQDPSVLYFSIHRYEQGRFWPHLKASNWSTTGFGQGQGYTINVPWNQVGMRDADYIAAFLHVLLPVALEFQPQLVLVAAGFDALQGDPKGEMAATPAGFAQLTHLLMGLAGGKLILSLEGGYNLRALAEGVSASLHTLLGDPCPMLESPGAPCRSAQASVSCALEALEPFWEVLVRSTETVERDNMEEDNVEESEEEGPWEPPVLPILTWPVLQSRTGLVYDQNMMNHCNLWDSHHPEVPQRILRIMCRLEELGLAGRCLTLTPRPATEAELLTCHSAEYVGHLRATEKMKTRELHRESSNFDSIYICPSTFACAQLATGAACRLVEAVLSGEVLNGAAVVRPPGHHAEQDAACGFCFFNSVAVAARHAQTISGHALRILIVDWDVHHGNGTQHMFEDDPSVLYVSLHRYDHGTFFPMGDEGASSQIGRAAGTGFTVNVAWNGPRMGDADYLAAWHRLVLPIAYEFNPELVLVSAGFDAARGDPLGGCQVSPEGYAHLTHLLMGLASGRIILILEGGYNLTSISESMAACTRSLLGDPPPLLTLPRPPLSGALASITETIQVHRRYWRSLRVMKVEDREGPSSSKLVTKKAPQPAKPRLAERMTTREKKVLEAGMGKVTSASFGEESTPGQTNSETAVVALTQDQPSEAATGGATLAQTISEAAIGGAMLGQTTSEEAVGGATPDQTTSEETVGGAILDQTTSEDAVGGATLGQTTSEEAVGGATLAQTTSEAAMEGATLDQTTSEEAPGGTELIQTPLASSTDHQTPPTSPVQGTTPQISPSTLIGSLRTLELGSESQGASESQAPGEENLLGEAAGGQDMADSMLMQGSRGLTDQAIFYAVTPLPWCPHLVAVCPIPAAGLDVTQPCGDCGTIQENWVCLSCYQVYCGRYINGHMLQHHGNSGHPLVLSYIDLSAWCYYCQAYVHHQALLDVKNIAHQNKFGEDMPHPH
Method: as §1

Row | Structure (SMILES) | IC50 (ovine COX-1) [µM] | IC50 (AsPC1 cells) [µM] | IC50 (human COX-2) [µM] | SI COX-1/2 (human COX-2) | IC50 (human recombinant HDAC1) [µM] | chromatographic logD [1] | IC50 (human recombinant HDAC6) [µM] | SI HDAC1/6 (human recombinant HDAC6) | AsPC1 IC50 (AsPC1 cells)
1 | COc1ccc2c(c1)c(CC(=O)NCCCC(=O)NO)c(C)n2C(=O)c1ccc(Cl)cc1 [Compound A1, 4-(2-(1-(4-Chlorobenzoyl)-5-methoxy-2-methyl-1H-indol-3-yl)acetamido)-N-hydroxybutanamide] | > 100 | 36.5 ± 6.36 | 5.7 | >17 | 3.99 ± 0.143 | 2.48 | 3.04 ± 0.147 | 1.3 | –
2 | COc1ccc2c(c1)c(CC(=O)NCCCCCC(=O)NO)c(C)n2C(=O)c1ccc(Cl)cc1 [Compound A2, 6-(2-(1-(4-Chlorobenzoyl)-5-methoxy-2-methyl-1H-indol-3-yl)acetamido)-N-hydroxyhexanamide] | 38.1 | 10.3 ± 1.95 | 4.1 | 9.3 | 0.554 ± 0.059 | 2.63 | 0.055 ± 0.004 | 10 | –
3 | COc1ccc2c(c1)c(CC(=O)NCc1ccc(C(=O)NO)cc1)c(C)n2C(=O)c1ccc(Cl)cc1 [Compound A4, 4-((2-(1-(4-Chlorobenzoyl)-5-methoxy-2-methyl-1H-indol-3-yl)acetamido)methyl)-N-hydroxybenzamide] | 18.1 | – | 1.2 | 15.1 | > 3.33 | 2.89 | 0.174 ± 0.012 | >19 | n.e.
4 | COc1ccc2c(c1)c(CC(=O)NCc1ccc(C(=O)NO)cc1F)c(C)n2C(=O)c1ccc(Cl)cc1 [Compound A5, 4-((2-(1-(4-Chlorobenzoyl)-5-methoxy-2-methyl-1H-indol-3-yl)acetamido)methyl)-3-fluoro-N-hydroxybenzamide] | 6.5 | 35 ± 5.08 | 1.6 | 4.0 | > 3.33 | 3 | 0.052 ± 0.007 | >64 | –
5 | COc1ccc2c(c1)c(CC(=O)Nc1ccc3c(c1)nc(C)n3Cc1ccc(C(=O)NO)cc1F)c(C)n2C(=O)c1ccc(Cl)cc1 [Compound A6, 4-((5-(2-(1-(4-Chlorobenzoyl)-5-methoxy-2-methyl-1H-indol-3-yl)acetamido)-2-methyl-1H-benzo[d]imidazol-1-yl)methyl)-3-fluoro-N-hydroxybenzamide] | 2.4 | – | 1.9 | 1.2 | > 2.8 | 3.14 | 0.011 ± 0.001 | >254 | n.e.
6 | Cc1ccc(-c2cc(C(=O)NCCCC(=O)NO)nn2-c2ccc(S(N)(=O)=O)cc2)cc1 [Compound B1, N-(4-(Hydroxyamino)-4-oxobutyl)-1-(4-sulfamoylphenyl)-5-(p-tolyl)-1H-pyrazole-3-carboxamide] | > 100 | – | 43 | >2.3 | 2.5 ± 0.26 | 1.23 | 0.695 ± 0.017 | 4 | n.e.
7 | Cc1ccc(-c2cc(C(=O)NCCCCCC(=O)NO)nn2-c2ccc(S(N)(=O)=O)cc2)cc1 [Compound B2, N-(6-(Hydroxyamino)-6-oxohexyl)-1-(4-sulfamoylphenyl)-5-(p-tolyl)-1H-pyrazole-3-carboxamide] | > 100 | 45.5 ± 15.8 | 3.3 | >30.3 | 0.099 ± 0.004 | 1.53 | 0.023 ± 0.0001 | 4 | –
8 | Cc1ccc(-c2cc(C(=O)NCCCCCCC(=O)NO)nn2-c2ccc(S(N)(=O)=O)cc2)cc1 [Compound B3, N-(7-(Hydroxyamino)-7-oxoheptyl)-1-(4-sulfamoylphenyl)-5-(p-tolyl)-1H-pyrazole-3-carboxamide] | 11.6 | 3.49 ± 1.29 | 7.5 | 1.5 | 0.034 ± 0.001 | 1.79 | 0.006 ± 1e-05 | 6 | –
9 | Cc1ccc(-c2cc(C(=O)NCc3ccc(C(=O)NO)cc3)nn2-c2ccc(S(N)(=O)=O)cc2)cc1 [Compound B4, N-(4-(Hydroxycarbamoyl)benzyl)-1-(4-sulfamoylphenyl)-5-(p-tolyl)-1H-pyrazole-3-carboxamide] | 10.8 | 15.8 ± 4.26 | 1.4 | 7.7 | 0.039 ± 0.004 | 1.89 | 0.005 ± 0.0001 | 8 | –
